Earlier results, collected in PubChem BioAssay AID1259409 (Chemical Carcinogenesis Research Information System (CCRIS), 2018).
Several values for one entry are separate records, joined by “and”; a condition that tells them apart may be missing. Equal entries are not always repeated.

Tested on: rodent chemically induced tumor inhibition, incidence and multiplicity
Test: CCRIS tumor inhibitor studies
Settings: Dose [Inhibitor]: 0, Route [Inhibitor]: ORAL, Species: RAT

In the case of `CC1=C(CC(=O)O)c2cc(F)ccc2/C1=C\c1ccc(S(C)(=O)=O)cc1`, the “tumour outcome (control, treated, inhibition, significance)” value (Carcinogen: 1-METHYL-1-NITROSOUREA, 684-93-5, 0.03% IN A PURIFIED HIGH-FAT (24.6%) DIET FOR 37 WK BEGINNING 1 WK POST CARCINOGEN DOSE (STUDY DURATION: 38 WK), Strain/Sex: SPRAGUE-DAWLEY/FEMALE, Target Tissue: Type of Lesion: MAMMARY GLAND: CARCINOMA, Dose [Carcinogen]: 12.5 MG/KG BW ONCE, Promoter: NONE USED) is given as 30%, 12%, 60%, p<0.05, the “tumour outcome (control, treated, inhibition, significance)” value (Carcinogen: 1-METHYL-1-NITROSOUREA, 684-93-5, 0.03% IN DIET FOR DURATION OF STUDY BEGINNING 7 D POST CARCINOGEN DOSE (STUDY DURATION: 24 WK), Strain/Sex: SPRAGUE-DAWLEY/FEMALE, Target Tissue: Type of Lesion: MAMMARY GLAND: ADENOCARCINOMA, Dose [Carcinogen]: 50 MG/KG ONCE, Promoter: NONE USED) is given as 93%, 93%, 0%, not significant and the “tumour outcome (control, treated, inhibition, significance)” value (Carcinogen: 1-METHYL-1-NITROSOUREA, 684-93-5, 0.06% IN A PURIFIED HIGH-FAT (24.6%) DIET FOR 37 WK BEGINNING 1 WK POST CARCINOGEN DOSE (STUDY DURATION: 38 WK), Strain/Sex: SPRAGUE-DAWLEY/FEMALE, Target Tissue: Type of Lesion: MAMMARY GLAND: CARCINOMA, Dose [Carcinogen]: 12.5 MG/KG BW ONCE, Promoter: NONE USED) is given as 30%, 16%, 47%, p<0.05. For the same molecule, the “tumour outcome (control, treated, inhibition, significance)” value (Carcinogen: 1-METHYL-1-NITROSOUREA, 684-93-5, 0.06% IN DIET FOR DURATION OF STUDY BEGINNING 7 D POST CARCINOGEN DOSE (STUDY DURATION: 24 WK), Strain/Sex: SPRAGUE-DAWLEY/FEMALE, Target Tissue: Type of Lesion: MAMMARY GLAND: ADENOCARCINOMA, Dose [Carcinogen]: 50 MG/KG ONCE, Promoter: NONE USED) was 93%, 72%, 23%, p<0.05, the “tumour outcome (control, treated, inhibition, significance)” value (Carcinogen: AZOXYMETHANE, 25843-45-2, 500 PPM IN DIET FOR 29 WK BEGINNING 1 WK POST CARCINOGEN TREATMENT (STUDY DURATION: 32 WK), Strain/Sex: F344/MALE, Target Tissue: Type of Lesion: COLON: ADENOMA, Dose [Carcinogen]: 15 MG/KG BW 1/WK FOR 2 WK, Promoter: NONE USED) was 77%, 60%, 22%, not significant and the “tumour outcome (control, treated, inhibition, significance)” value (Carcinogen: AZOXYMETHANE, 25843-45-2, 500 PPM IN DIET FOR 29 WK BEGINNING 1 WK POST CARCINOGEN TREATMENT (STUDY DURATION: 32 WK), Strain/Sex: F344/MALE, Target Tissue: Type of Lesion: COLON: CARCINOMA, Dose [Carcinogen]: 15 MG/KG BW 1/WK FOR 2 WK, Promoter: NONE USED) was 53%, 63%, -19%, not significant. For the same molecule, the “tumour outcome (control, treated, inhibition, significance)” value (Carcinogen: AZOXYMETHANE, 25843-45-2, 1000 PPM IN DIET FOR 29 WK BEGINNING 1 WK POST CARCINOGEN TREATMENT (STUDY DURATION: 32 WK), Strain/Sex: F344/MALE, Target Tissue: Type of Lesion: COLON: ADENOMA, Dose [Carcinogen]: 15 MG/KG BW 1/WK FOR 2 WK, Promoter: NONE USED) was 77%, 40%, 48%, p<0.05, the “tumour outcome (control, treated, inhibition, significance)” value (Carcinogen: AZOXYMETHANE, 25843-45-2, 1000 PPM IN DIET FOR 29 WK BEGINNING 1 WK POST CARCINOGEN TREATMENT (STUDY DURATION: 32 WK), Strain/Sex: F344/MALE, Target Tissue: Type of Lesion: COLON: CARCINOMA, Dose [Carcinogen]: 15 MG/KG BW 1/WK FOR 2 WK, Promoter: NONE USED) was 53%, 37%, 30%, not significant and the “tumour outcome (control, treated, inhibition, significance)” value (Carcinogen: AZOXYMETHANE, 25843-45-2, 2000 PPM IN DIET FOR 29 WK BEGINNING 1 WK POST CARCINOGEN TREATMENT (STUDY DURATION: 32 WK), Strain/Sex: F344/MALE, Target Tissue: Type of Lesion: COLON: ADENOMA, Dose [Carcinogen]: 15 MG/KG BW 1/WK FOR 2 WK, Promoter: NONE USED) was 77%, 20%, 74%, p<0.05. For the same molecule, the “tumour outcome (control, treated, inhibition, significance)” value (Carcinogen: AZOXYMETHANE, 25843-45-2, 2000 PPM IN DIET FOR 29 WK BEGINNING 1 WK POST CARCINOGEN TREATMENT (STUDY DURATION: 32 WK), Strain/Sex: F344/MALE, Target Tissue: Type of Lesion: COLON: CARCINOMA, Dose [Carcinogen]: 15 MG/KG BW 1/WK FOR 2 WK, Promoter: NONE USED) was 53%, 10%, 81%, p<0.05, the “tumour outcome (control, treated, inhibition, significance)” value (Carcinogen: N-BUTYL-N-(N-HYDROXYBUTYL)NITROSAMINE [3817-11-6], 600 MG/KG IN DIET FOR 6 MONTHS BEGINNING 1 WK PRIOR TO FIRST CARCINOGEN DOSE (STUDY DURATION: 6 MONTHS), Strain/Sex: F344/FEMALE, Target Tissue: Type of Lesion: URINARY BLADDER: CARCINOMA, Dose [Carcinogen]: 150 MG IN 20% ETHANOL 2X/WK FOR 8 WK (STUDY DURATION: 6 MONTHS), Promoter: NONE) was 27%, 30%, -11%, not significant and the “tumour outcome (control, treated, inhibition, significance)” value (Carcinogen: N-BUTYL-N-(N-HYDROXYBUTYL)NITROSAMINE [3817-11-6], 600 MG/KG IN DIET FOR 6 MONTHS BEGINNING 1 WK PRIOR TO FIRST CARCINOGEN DOSE (STUDY DURATION: 6 MONTHS), Strain/Sex: F344/FEMALE, Target Tissue: Type of Lesion: URINARY BLADDER: PAPILLOMA, Dose [Carcinogen]: 150 MG IN 20% ETHANOL 2X/WK FOR 8 WK (STUDY DURATION: 6 MONTHS), Promoter: NONE) was 60%, 60%, 0%, not significant. For the same molecule, the “tumour outcome (control, treated, inhibition, significance)” value (Carcinogen: N-BUTYL-N-(N-HYDROXYBUTYL)NITROSAMINE [3817-11-6], 800 MG/KG IN DIET FOR 6 MONTHS BEGINNING 1 WK PRIOR TO FIRST CARCINOGEN DOSE (STUDY DURATION: 6 MONTHS), Strain/Sex: F344/FEMALE, Target Tissue: Type of Lesion: URINARY BLADDER: CARCINOMA, Dose [Carcinogen]: 150 MG IN 20% ETHANOL 2X/WK FOR 8 WK (STUDY DURATION: 6 MONTHS), Promoter: NONE) was 27%, 23%, 15%, not significant, the “tumour outcome (control, treated, inhibition, significance)” value (Carcinogen: N-BUTYL-N-(N-HYDROXYBUTYL)NITROSAMINE [3817-11-6], 800 MG/KG IN DIET FOR 6 MONTHS BEGINNING 1 WK PRIOR TO FIRST CARCINOGEN DOSE (STUDY DURATION: 6 MONTHS), Strain/Sex: F344/FEMALE, Target Tissue: Type of Lesion: URINARY BLADDER: PAPILLOMA, Dose [Carcinogen]: 150 MG IN 20% ETHANOL 2X/WK FOR 8 WK (STUDY DURATION: 6 MONTHS), Promoter: NONE) was 60%, 43%, 28%, not significant and the “tumour outcome (control, treated, inhibition, significance)” value (Carcinogen: N-BUTYL-N-(N-HYDROXYBUTYL)NITROSAMINE [3817-11-6], 1000 MG/KG IN DIET FOR 6 MONTHS BEGINNING 1 WK PRIOR TO FIRST CARCINOGEN DOSE (STUDY DURATION: 6 MONTHS), Strain/Sex: F344/FEMALE, Target Tissue: Type of Lesion: URINARY BLADDER: CARCINOMA, Dose [Carcinogen]: 150 MG IN 20% ETHANOL 2X/WK FOR 8 WK (STUDY DURATION: 6 MONTHS), Promoter: NONE) was 27%, 14%, 48%, not significant. The “tumour outcome (control, treated, inhibition, significance)” value (Carcinogen: N-BUTYL-N-(N-HYDROXYBUTYL)NITROSAMINE [3817-11-6], 1000 MG/KG IN DIET FOR 6 MONTHS BEGINNING 1 WK PRIOR TO FIRST CARCINOGEN DOSE (STUDY DURATION: 6 MONTHS), Strain/Sex: F344/FEMALE, Target Tissue: Type of Lesion: URINARY BLADDER: PAPILLOMA, Dose [Carcinogen]: 150 MG IN 20% ETHANOL 2X/WK FOR 8 WK (STUDY DURATION: 6 MONTHS), Promoter: NONE) was 60%, 38%, 37%, not significant, the “tumour outcome (control, treated, inhibition, significance)” value (Carcinogen: N-BUTYL-N-(N-HYDROXYBUTYL)NITROSAMINE [3817-11-6], 1200 MG/KG IN DIET FOR 6 MONTHS BEGINNING 1 WK PRIOR TO FIRST CARCINOGEN DOSE (STUDY DURATION: 6 MONTHS), Strain/Sex: F344/FEMALE, Target Tissue: Type of Lesion: URINARY BLADDER: CARCINOMA, Dose [Carcinogen]: 150 MG IN 20% ETHANOL 2X/WK FOR 8 WK (STUDY DURATION: 6 MONTHS), Promoter: NONE) was 27%, 7%, 74%, not significant and the “tumour outcome (control, treated, inhibition, significance)” value (Carcinogen: N-BUTYL-N-(N-HYDROXYBUTYL)NITROSAMINE [3817-11-6], 1200 MG/KG IN DIET FOR 6 MONTHS BEGINNING 1 WK PRIOR TO FIRST CARCINOGEN DOSE (STUDY DURATION: 6 MONTHS), Strain/Sex: F344/FEMALE, Target Tissue: Type of Lesion: URINARY BLADDER: PAPILLOMA, Dose [Carcinogen]: 150 MG IN 20% ETHANOL 2X/WK FOR 8 WK (STUDY DURATION: 6 MONTHS), Promoter: NONE) was 60%, 27%, 55%, not significant.

For `CC1(C)O[C@H]2CC(=O)OC[C@]23[C@H]2CC[C@@]4(C)[C@H](c5ccoc5)OC(=O)[C@H]5O[C@]54[C@]2(C)C(=O)C[C@@H]13`, the “tumour outcome (control, treated, inhibition, significance)” value (Carcinogen: AZOXYMETHANE, 25843-45-2, 0.05% IN DIET FOR 35 WK BEGINNING 1 WK POST CARCINOGEN LAST DOSE (STUDY DURATION: 38 WK), Strain/Sex: F344/MALE, Target Tissue: Type of Lesion: COLON: ADENOCARCINOMA, Dose [Carcinogen]: 20 MG/KG BW 1/WK FOR 2 WK) is listed as 18/25 (72%), 1/16 (6%), 92%, p=0.00003 and 18/25 (72%), 2/16 (13%), 82%, p=0.0002.
